Source: the NIST ThermoML archive (doi:10.1021/je0342163)

Assay: wn = mass fraction of the nth substance listed

CC(F)(F)F [1,1,1-trifluoroethane] + FCC(F)(F)F
Conditions	surface tension liquid-gas [mN/m]
256.91 K, w1 = 0.7511	10.69
257.03 K, w1 = 0.263	12.6
257.14 K, w1 = 0.5656	11.49
258.79 K, w1 = 0.7508	10.37
258.87 K, w1 = 0.2627	12.39
260.95 K, w1 = 0.565	10.86
261 K, w1 = 0.7503	10.13
262.96 K, w1 = 0.75	9.8
263.05 K, w1 = 0.5646	10.49
264.97 K, w1 = 0.2618	11.46
264.97 K, w1 = 0.7496	9.615
265.07 K, w1 = 0.5643	10.39
266.84 K, w1 = 0.564	10.02
267.09 K, w1 = 0.7491	9.245
268.62 K, w1 = 0.7488	9.17
268.83 K, w1 = 0.2611	10.94
268.92 K, w1 = 0.5636	9.81
270.52 K, w1 = 0.5633	9.46
270.6 K, w1 = 0.7484	8.84
271.15 K, w1 = 0.2607	10.62
273.07 K, w1 = 0.5628	9.14
273.2 K, w1 = 0.2604	10.39
273.23 K, w1 = 0.7478	8.49
274.99 K, w1 = 0.5625	8.825
275.4 K, w1 = 0.7473	8.26
275.43 K, w1 = 0.26	10.06
277.04 K, w1 = 0.2597	9.845
277.27 K, w1 = 0.562	8.575
278.99 K, w1 = 0.5617	8.35
279.15 K, w1 = 0.2593	9.5
279.35 K, w1 = 0.7463	7.755
281.43 K, w1 = 0.2589	9.23
281.48 K, w1 = 0.5612	8
281.54 K, w1 = 0.7458	7.46
282.89 K, w1 = 0.2586	9.01
283.35 K, w1 = 0.5608	7.755
283.39 K, w1 = 0.7453	7.25
285.2 K, w1 = 0.5604	7.465
285.24 K, w1 = 0.2581	8.695
285.45 K, w1 = 0.7448	6.985
287.35 K, w1 = 0.5599	7.295
287.39 K, w1 = 0.7443	6.725
287.4 K, w1 = 0.2577	8.415
289.05 K, w1 = 0.7438	6.5
289.29 K, w1 = 0.5595	7.115
289.31 K, w1 = 0.2573	8.23
291.17 K, w1 = 0.7432	6.23
291.2 K, w1 = 0.5591	6.82
291.37 K, w1 = 0.2569	8.03
293.21 K, w1 = 0.2565	7.725
293.45 K, w1 = 0.2564	7.57
293.49 K, w1 = 0.5585	6.47
293.71 K, w1 = 0.7425	5.82
295.16 K, w1 = 0.5582	6.13
295.56 K, w1 = 0.7419	5.58
295.58 K, w1 = 0.256	7.285
297.38 K, w1 = 0.2556	7.06
297.49 K, w1 = 0.7413	5.375
297.52 K, w1 = 0.5576	5.875
299.41 K, w1 = 0.7407	5.14
299.51 K, w1 = 0.5571	5.72
299.53 K, w1 = 0.2552	6.855
301.41 K, w1 = 0.7401	4.89
301.53 K, w1 = 0.2547	6.585
302.95 K, w1 = 0.5563	5.335
303.65 K, w1 = 0.7394	4.63
303.66 K, w1 = 0.2542	6.325
305.21 K, w1 = 0.5557	5.055
305.38 K, w1 = 0.7388	4.425
305.56 K, w1 = 0.2538	6.13
307.4 K, w1 = 0.5552	4.755
307.46 K, w1 = 0.2534	5.835
307.74 K, w1 = 0.738	4.17
309.3 K, w1 = 0.5547	4.56
309.6 K, w1 = 0.2529	5.585
309.65 K, w1 = 0.7373	3.97
311.25 K, w1 = 0.2525	5.385
311.41 K, w1 = 0.5541	4.29
311.44 K, w1 = 0.7367	3.755
313.47 K, w1 = 0.736	3.5
313.55 K, w1 = 0.252	5.095
313.61 K, w1 = 0.5536	4.03
315.3 K, w1 = 0.5531	3.825
315.54 K, w1 = 0.7352	3.3
315.59 K, w1 = 0.2515	4.85
317.36 K, w1 = 0.2511	4.66
317.41 K, w1 = 0.5525	3.605
317.57 K, w1 = 0.7345	3.11
319.33 K, w1 = 0.552	3.415
319.39 K, w1 = 0.7338	2.875
319.66 K, w1 = 0.2506	4.41
321.23 K, w1 = 0.7331	2.685
321.33 K, w1 = 0.5515	3.18
322.01 K, w1 = 0.25	4.12
323.26 K, w1 = 0.2497	4
323.33 K, w1 = 0.7323	2.44
323.42 K, w1 = 0.5509	2.925
325.17 K, w1 = 0.5505	2.75
325.28 K, w1 = 0.7315	2.25
325.69 K, w1 = 0.2492	3.67
327.33 K, w1 = 0.2488	3.545
327.36 K, w1 = 0.7306	2.065
327.38 K, w1 = 0.5498	2.53
329.42 K, w1 = 0.7298	1.81
329.44 K, w1 = 0.5493	2.32
